This note sets out measurements from ChEMBL document CHEMBL4270561, “Biological activity of doubly modified salinomycin analogs - Evaluation in vitro and ex vivo” (Eur J Med Chem, 2018).

The structures appear in SMILES notation.

A short description of data set [1]: Antiproliferative activity against human ALL5 cells after 120 hrs by MTT assay. It counts as functional, cell-based. The settings on record: ALL5, 120 h.
The subject of data set [2] is LoVo. Description: Antiproliferative activity against human LoVo cells after 72 hrs by SRB assay. The data set is classed as functional, cell-based. For orientation: Sulforhodamine B stains cellular protein and so reports cell mass.
Data set [3] in a line: Antiproliferative activity against human LoVo/DX cells after 72 hrs by SRB assay. It counts as functional, cell-based.
In data set [4] the test system is JIMT-1. Description: Antiproliferative activity against human JIMT1 cells after 72 hrs by SRB assay. The data set is classed as functional, cell-based. The following applies: JIMT-1, 72 h.
The test system of data set [5] is MCF7. In words: Antiproliferative activity against human MCF7 cells after 72 hrs by SRB assay. The data set is classed as functional, cell-based. The following applies: MCF7, 72 h.
Data set [6] concerns SK-BR-3. Description: Antiproliferative activity against human SK-BR-3 cells at 100 ug/ml after 72 hrs by SRB assay relative to control. The data set is classed as functional.
Data set [7] has as its system MCF-10A. Description: Antiproliferative activity against human MCF10A cells at 100 ug/ml after 72 hrs by SRB assay relative to control. The data set is classed as cell-based.
Data set [8] can be described thus: Cell cycle arrest in human ALL5 cells assessed as accumulation at sub-G1 phase at 5 times antiproliferative IC50 after 24 hrs by propidium iodide staining based flow cytometry (reference value: 6.07%). The data set is classed as functional. A general note: Flow cytometry measures light scatter and fluorescence of single cells or particles in a stream.
Data set [9] in a line: Cell cycle arrest in human ALL5 cells assessed as accumulation at G0/G1 phase at 5 times antiproliferative IC50 after 24 hrs by propidium iodide staining based flow cytometry (reference value: 79.7%). The data set is classed as functional.
The nature of data set [10]: Cell cycle arrest in human ALL5 cells assessed as accumulation at S-phase at 5 times antiproliferative IC50 after 24 hrs by propidium iodide staining based flow cytometry (reference value: 6.76%). The data set is classed as functional.
Data set [11] in a line: Cell cycle arrest in human ALL5 cells assessed as accumulation at G2/M-phase at 5 times antiproliferative IC50 after 24 hrs by propidium iodide staining based flow cytometry (reference value: 7.98%). The data set is classed as functional.
Data set [12] is described as follows: Cell cycle arrest in human ALL5 cells assessed as accumulation at sub-G1 phase at 5 times antiproliferative IC50 after 48 hrs by propidium iodide staining based flow cytometry (reference value: 7.8%). The data set is classed as functional.
Data set [13] can be described thus: Cell cycle arrest in human ALL5 cells assessed as accumulation at G0/G1 phase at 5 times antiproliferative IC50 after 48 hrs by propidium iodide staining based flow cytometry (reference value: 69.6%). It counts as functional.
Data set [14] in a line: Cell cycle arrest in human ALL5 cells assessed as accumulation at S-phase at 5 times antiproliferative IC50 after 48 hrs by propidium iodide staining based flow cytometry (reference value: 9.82%). It counts as functional.
Data set [15] can be described thus: Cell cycle arrest in human ALL5 cells assessed as accumulation at G2/M-phase at 5 times antiproliferative IC50 after 48 hrs by propidium iodide staining based flow cytometry (reference value: 13.2%). It counts as functional.
Data set [16] can be described thus: Cell cycle arrest in human ALL5 cells assessed as accumulation at sub-G1 phase at 5 times antiproliferative IC50 after 96 hrs by propidium iodide staining based flow cytometry (reference value: 12%). It counts as functional.
Data set [17] is described as follows: Cell cycle arrest in human ALL5 cells assessed as accumulation at G0/G1 phase at 5 times antiproliferative IC50 after 96 hrs by propidium iodide staining based flow cytometry (reference value: 69.8%). It counts as functional.
Data set [18] in a line: Cell cycle arrest in human ALL5 cells assessed as accumulation at S-phase at 5 times antiproliferative IC50 after 96 hrs by propidium iodide staining based flow cytometry (reference value: 7.52%). It counts as functional.
Data set [19] can be described thus: Cell cycle arrest in human ALL5 cells assessed as accumulation at G2/M-phase at 5 times antiproliferative IC50 after 96 hrs by propidium iodide staining based flow cytometry (reference value: 11.1%). The data set is classed as functional.
A short description of data set [20]: Resistance index, ratio of IC50 for human LoVo/DX cells to IC50 for human LoVo cells. It counts as functional.
In data set [21] the test system is SK-BR-3. In words: Antiproliferative activity against human SK-BR-3 cells after 72 hrs by SRB assay. The settings on record: SK-BR-3, 72 h. It counts as functional, cell-based.
Data set [22] in a line: Antiproliferative activity against human ALL5 cells at 10 uM after 120 hrs by MTT assay relative to control. It counts as functional.
Data set [23] relates to MCF-10A. Description: Antiproliferative activity against human MCF10A cells after 72 hrs by SRB assay. It counts as cell-based.
Data set [24] in a line: Selectivity index, ratio of IC50 for human MCF10A cells to IC50 for human LoVo/DX cells. The data set is classed as toxicity. The settings on record: MCF10A cells versus LoVo/DX cells, read-out: Ratio IC50.
A short description of data set [25]: Selectivity index, ratio of IC50 for human MCF10A cells to IC50 for human LoVo cells. It counts as toxicity. The following applies: MCF10A cells versus LoVo cells, read-out: Ratio IC50.
Data set [26] in a line: Selectivity index, ratio of IC50 for human MCF10A cells to IC50 for human JIMT1 cells. It counts as toxicity. The following applies: MCF10A cells versus JIMT1 cells, read-out: Ratio IC50.
A short description of data set [27]: Selectivity index, ratio of IC50 for human MCF10A cells to IC50 for human SK-BR-3 cells. It counts as toxicity. The following applies: MCF10A cells versus SK-BR-3 cells, read-out: Ratio IC50.
The nature of data set [28]: Selectivity index, ratio of IC50 for human MCF10A cells to IC50 for human MCF7 cells. The data set is classed as toxicity. The settings on record: MCF10A cells versus MCF7 cells, read-out: Ratio IC50.
Data set [29] is described as follows: Selectivity index, ratio of IC50 for human MCF10A cells to IC50 for human ALL5 cells. It counts as toxicity. The following applies: MCF10A cells versus ALL5 cells, read-out: Ratio IC50.

Regarding `C#CCOC(=O)[C@H](CC)[C@H]1CC[C@H](C)[C@H]([C@@H](C)[C@H](O)[C@H](C)C(=O)[C@H](CC)[C@H]2O[C@]3(C=C[C@@H](OC(C)=O)[C@]4(CC[C@@](C)([C@H]5CC[C@](O)(CC)[C@H](C)O5)O4)O3)[C@H](C)C[C@@H]2C)O1`, the IC50 amounted to 2.6 µM in data set [1]; 12 µM in data set [2]; 5.2 µM in [3]; 27 µM in [4]; 7.4 µM in [5]. Moreover, the Activity entry in data set [6] is reported as “<=50%”; in [7], “<= 50%”; in data set [8], 5.15%; in data set [9], 80.2%; in data set [10] it was 5.99%; in data set [11], 9.12%. The Activity stood at 9.68% in data set [12]; 73.5% in data set [13]; 5.62% in [14]; 11.5% in data set [15]; 26.8% in data set [16]; 57.7% in data set [17]. The Activity in data set [18] is 5.06%; in [19] it was 10.6%. In addition, the “Ratio IC50” value in [20] is 0.43.

Take `C#CCOC(=O)[C@H](CC)[C@H]1CC[C@H](C)[C@H]([C@@H](C)[C@H](O)[C@H](C)C(=O)[C@H](CC)[C@H]2O[C@]3(C=C[C@@H](OC(=O)NCC)[C@]4(CC[C@@](C)([C@H]5CC[C@](O)(CC)[C@H](C)O5)O4)O3)[C@H](C)C[C@@H]2C)O1`: the concentration for half-maximal inhibition (IC50) in data set [1] amounted to 6.9 µM; in data set [2] it was 5.2 µM; in data set [3] it was 3.4 µM; in data set [4], 7.4 µM; in data set [21], 25 µM; in data set [5] it was 5 µM. Moreover, the Activity entry is listed as “<= 50%” in data set [7]; 6.58% in data set [8]; 78.8% in data set [9]; 5.16% in [10]; 9.7% in [11]; 19.6% in [12]. Further, the Activity in [13] is 61.1%; in data set [14] it was 5.8%; in [15] it was 13.8%; in data set [16] it was 43.6%; in data set [17] it was 42%; in data set [18], 3.67%. Besides, the Activity in data set [19] is 10.9%. Further, the “Ratio IC50” value in data set [20] came to 0.65.

On to `CC[C@@H](C(=O)[C@@H](C)[C@@H](O)[C@H](C)[C@@H]1O[C@@H]([C@@H](CC)C(=O)OCC(F)(F)F)CC[C@@H]1C)[C@H]1O[C@]2(C=C[C@@H](OC(C)=O)[C@]3(CC[C@@](C)([C@H]4CC[C@](O)(CC)[C@H](C)O4)O3)O2)[C@H](C)C[C@@H]1C`, for which the half-inhibitory concentration (IC50) in [2] was 8.7 µM; in data set [3], 18 µM; in [4], 39 µM; in data set [5] it was 12 µM. Also, the results for the Activity result in [22], in data set [6] and in data set [7] were “<=50%”, “<=50%” and “<= 50%”, respectively. Further, in data set [20], the “Ratio IC50” value is on record as 2.1.

Take `C#CCNC(=O)[C@H](CC)[C@H]1CC[C@H](C)[C@H]([C@@H](C)[C@H](O)[C@H](C)C(=O)[C@H](CC)[C@H]2O[C@]3(C=C[C@@H](O)[C@]4(CC[C@@](C)([C@H]5CC[C@](O)(CC)[C@H](C)O5)O4)O3)[C@H](C)C[C@@H]2C)O1`: the IC50 is 7.7 µM in data set [2]; 3.1 µM in data set [3]; 29 µM in [4]; 31 µM in data set [21]; 10 µM in [5]; 62 µM in data set [23]. Further, the Activity result in [22] is listed as “<=50%”. Moreover, the selectivity ratio in [24] came to 20; in data set [25] it was 8.1; in [26] it was 2.1; in data set [27], 2; in data set [28], 6.2. The “Ratio IC50” value in data set [20] worked out at 0.4.

As to `C#CCOC(=O)[C@H](CC)[C@H]1CC[C@H](C)[C@H]([C@@H](C)[C@H](O)[C@H](C)C(=O)[C@H](CC)[C@H]2O[C@]3(C=C[C@@H](O)[C@]4(CC[C@@](C)([C@H]5CC[C@](O)(CC)[C@H](C)O5)O4)O3)[C@H](C)C[C@@H]2C)O1`, the 50% inhibitory concentration (IC50) in data set [1] was determined as 3.3 µM; in [2], 3.9 µM; in data set [3], 2.6 µM; in data set [4], 6.2 µM; in data set [21], 8.5 µM; in data set [5] it was 4.3 µM. In data set [23], the 50% inhibitory concentration (IC50) is 54 µM. In addition, the Activity in data set [8] was found to be 16.2%; in data set [9] it was 71.3%; in [10], 4.34%; in data set [11] it was 8.24%; in data set [12], 39.8%; in data set [13], 51.7%. For the same compound, the Activity in [14] came out at 3.58%; in [15], 5.35%; in data set [16] it was 49.8%; in data set [17], 42.8%; in [18], 2.95%; in data set [19] it was 4.64%. Also, the selectivity ratio was found to be 21 in [24]; 16 in data set [29]; 14 in data set [25]; 8.7 in data set [26]; 6.4 in data set [27]; 13 in [28]. Moreover, the “Ratio IC50” value in [20] was 0.67.

Turning to `CCOC(=O)O[C@@H]1C=C[C@]2(O[C@H]([C@@H](CC)C(=O)[C@@H](C)[C@@H](O)[C@H](C)[C@@H]3O[C@@H]([C@@H](CC)C(=O)NCCc4ccc(F)cc4)CC[C@@H]3C)[C@@H](C)C[C@H]2C)O[C@@]12CC[C@@](C)([C@H]1CC[C@](O)(CC)[C@H](C)O1)O2`, the IC50 in data set [1] was found to be 3.7 µM; in data set [2], 4.7 µM; in data set [3], 6.5 µM; in [4], 7 µM; in data set [21], 9.9 µM; in [5], 3.9 µM. The Activity entry in data set [7] is “<= 50%”; in data set [8] it was 6.39%; in [9], 82.5%; in [10] it was 4.95%; in data set [11], 6.54%; in data set [12], 7.78%. The Activity was found to be 86.4% in data set [13]; 1.02% in data set [14]; 4.85% in data set [15]; 27.5% in [16]; 69.4% in data set [17]; 1.35% in data set [18]. Besides, the Activity in data set [19] worked out at 1.94%. In addition, the “Ratio IC50” value in data set [20] was found to be 1.4.

Consider `C#CCNC(=O)[C@H](CC)[C@H]1CC[C@H](C)[C@H]([C@@H](C)[C@H](O)[C@H](C)C(=O)[C@H](CC)[C@H]2O[C@]3(C=C[C@@H](OC(=O)OCC)[C@]4(CC[C@@](C)([C@H]5CC[C@](O)(CC)[C@H](C)O5)O4)O3)[C@H](C)C[C@@H]2C)O1`, for which the half-inhibitory concentration (IC50) in [1] came to 17 µM; in data set [2], 4.7 µM; in [3] it was 3.8 µM; in data set [4], 7.9 µM; in data set [21] it was 16 µM; in [5], 4.9 µM. Further, the Activity result in data set [7] is reported as “<= 50%”. Besides, in data set [20], the “Ratio IC50” value turned out to be 0.81.

As usually defined, the IC50 is the midpoint of a concentration-inhibition curve. A higher IC50 goes with weaker potency in that assay.
